Patent US10604487B2, “Pyridinol derivative or pharmaceutically acceptable salt thereof, and pharmaceutical composition containing same as active ingredient” (Research Cooperation Foundation of Yeungnam University, priority 2016, dated 2020)

Legend:
TNBS-induced colitis = experiment: In vivo efficacy of oral administration in TNBS-induced inflammatory bowel disease model; set-up: species or system Sprague Dawley rats; settings: rat, oral, 1 mg/kg, 5 days
Experimental: 7 to 8-week-old Sprague Dawley rats were purchased from Orient Bio Korea, and after stabilization with typical solid feed for 3 days, were used as animals for the experiment. The animals were freely supplied with feed and water during the experiment, and a cage was maintained at a temperature of 25±1° C. and a relative humidity of 50±10%. Lighting was adjusted to a 12-hour light-dark cycle using an automatic lightening system. In regard to experimental groups, there were 5 groups each consisting of 6 rats having an average weight of 180±10 g (a control group, a group administered TNBS only, a group administered TNBS+300 mg/kg of sulfasalazine, a group administered TNBS+10 mg/kg of GLPG, and a group administered TNBS+1 mg/kg of test drug), which were divided according to a randomized block design.
After rats that had been fasting for 24 hours were anesthetized with diethyl ether, a 1 mL syringe connected with a polyethylene catheter was used to slowly inject 0.8 mL of 5% TNBS diluted with 50v/v % ethanol into the lumen of a colon, and then the rats turned upside down and kept upright for 60 seconds to prevent the leakage of 5% TNBS from the anus. In the control group, only a vehicle [50 v/v % ethanol] was injected in the same manner as in the other groups (Thapa et al., 2008).
To examine a drug effect, for 5 days from the day following the TNBS treatment, a drug was administered at a predetermined time every day.
A change in the body weights of the rats was observed using a digital mass meter from the fasting stage to the end of the TNBS administration and drug administration processes.
The colon of each rat was extracted and tissue 5 to 6 cm from the anus was cut into 1-cm pieces, and then the weight of the tissue was measured.

[1] = tested on: TNF-α-induced adhesion of monocytes to intestinal epithelial cells; experiment: Inhibitory activity against TNF-α-induced adhesion of monocytes (U937) to intestinal epithelial cells (HT-29); format: cell-based, human; settings: Homo sapiens, 1 μM test drug; HT-29/U937 adhesion, 10 ng/mL TNF-α; read-out: Inhibitory activity (%)
Procedure, shortened: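 HT-29 monolayers pretreated 1 h with compound in 1% FBS medium, then exposed 3 h at 37 °C to BCECF-loaded U937 cells plus 10 ng/mL TNF-α. Non-adherent cells washed off; bound cells quantified by fluorescence after Triton X-100 lysis.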

[2] = Cytotoxicity test (MTT), U937; format: cell-based; settings: human, U937, 48 h
Procedure, shortened: (§1)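 Cells seeded at 1×10⁵ cells/cm² and exposed to graded compound concentrations for 48 h at 37 °C in RPMI 1640 with 1% FBS. MTT (5 mg/mL) added for 4 h; formazan dissolved in DMSO and absorbance read at 540 nm.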

[3] = Cytotoxicity test (MTT), HT-29; format: cell-based; settings: human, HT-29, 48 h
Procedure, shortened: as §1

Cc1nc(NC(=S)NC(C)C)c(C)c(C)c1O [Compound 18-2, 1-(5-hydroxy-3,4,6-trimethylpyridin-2-yl)-3-isopropylthiourea]
Body weight recovery rate (%) (TNBS-induced colitis): 72.0% | Bowel weight recovery rate (%) (TNBS-induced colitis): 81.6% | inhibition at 1 µM [1]: ≥ 50% | viability at 48 h, 0.01 µM ([2]; U937 cells (monocytic blood cancer-derived cell line), 0.01 μM, read-out: Cell viability (% of control)): 97 ± 3.5% | viability at 48 h, 0.1 µM ([2]; U937 cells (monocytic blood cancer-derived cell line), 0.1 μM, read-out: Cell viability (% of control)): 99.4 ± 3.9% | viability at 48 h, 1 µM ([2]; U937 cells (monocytic blood cancer-derived cell line), 1 μM, read-out: Cell viability (% of control)): 99.1 ± 1.4% | viability at 48 h, 10 µM ([2]; U937 cells (monocytic blood cancer-derived cell line), 10 μM, read-out: Cell viability (% of control)): 90.8 ± 2.2% | viability at 48 h, 100 µM ([2]; U937 cells (monocytic blood cancer-derived cell line), 100 μM, read-out: Cell viability (% of control)): 63.6 ± 0.8% | IC50 at 48 h ([2]; U937 cells): > 100 µM | viability at 48 h, 0.01 µM ([3]; HT-29 cells (colorectal cancer cell line), 0.01 μM, read-out: Cell viability (% of control)): 87.6 ± 4.8% | viability at 48 h, 0.1 µM ([3]; HT-29 cells (colorectal cancer cell line), 0.1 μM, read-out: Cell viability (% of control)): 87.3 ± 2.1% | viability at 48 h, 1 µM ([3]; HT-29 cells (colorectal cancer cell line), 1 μM, read-out: Cell viability (% of control)): 88.4 ± 4.2% | viability at 48 h, 10 µM ([3]; HT-29 cells (colorectal cancer cell line), 10 μM, read-out: Cell viability (% of control)): 87.6 ± 5.3% | viability at 48 h, 100 µM ([3]; HT-29 cells (colorectal cancer cell line), 100 μM, read-out: Cell viability (% of control)): 88.6 ± 1.3% | IC50 at 48 h ([3]; HT-29 cells, read-out: IC50 (μM), cytotoxicity): > 100 µM
